# Reference: PMC7343282, “Tissue Distribution of Several Series of Cationic Surfactants in Rainbow Trout (Oncorhynchus mykiss) Following Exposure via Water” (Environmental Science & Technology, 2020)
# Tested on: rainbow trout (Oncorhynchus mykiss)
# Experiment: Contribution of tissues to fish body burden
# Format: in vivo
# Details: for Contribution of Blood to the fish's body burden / Contribution of Gills to the fish's body burden / Contribution of Liver to the fish's body burden / Contribution of Mucus to the fish's body burden / Contribution of Other tissue (all apart from blood, liver, gills and skin; muscle concentration assumed) to body burden / Contribution of Skin to the fish's body burden: fraction; for % contribution to body burden, Gills / % contribution to body burden, Mucus / % contribution to body burden, Liver / % contribution to body burden, Skin / % contribution to body burden, Muscle: mean across fish, Figure 1; for % contribution to body burden, Liver / % contribution to body burden, Skin / % contribution to body burden, Muscle: Q10, Q14 maximum estimates; for % contribution to body burden, Muscle: includes all tissues not specifically analyzed
# Text: To calculate the quantity of the test chemical in the different tissues, the amount of each tissue in the fish was estimated and multiplied by the concentration in that tissue. The test chemical quantities in the different tissues were then summed to give the body burden in each fish. The total weight of the fish and the weight of the liver and gills were available from the dissection (Table S16). For skin and mucus, the estimated outer surface area of the fish was used. We note that the distinction between mucus and skin is an operational one determined by the extraction method; mucus can be viewed as a more readily extracted fraction of the test chemical residues at the fish surface. The volume of blood was taken as 0.0495 mL g^–1 fish.[30] The remaining tissue (difference between the weight of the whole fish and the weight of liver, gills, skin, and blood) was assumed to have the concentration measured in the muscle. The contribution of the different tissues to the body burden is given for each fish in Table S17, and the average contribution across all fish is plotted in Figure 1. All of the tissues, with the exception of blood, contribute at least 10% of the body burden for at least half of the test chemicals. There is no consistent negative correlation between the fraction of chemical associated with blood, muscle, and liver (tissues where the residue originates entirely from systemic uptake) and alkyl chain length (a measure of hydrophobicity). Thus, although adsorption to fish surfaces appears to play a significant role, its contribution to body burden cannot be simply predicted from surfactant hydrophobicity. In the following, we examine uptake in individual tissues.
smiles,measurement,setting,value
"CCCCCCCCCCCCCCCCN [P16, hexadecylamine]",Contribution of Blood to the fish's body burden,Fish #1,0.013
same,Contribution of Gills to the fish's body burden,Fish #1,0.62
same,Contribution of Liver to the fish's body burden,Fish #1,0.11
same,Contribution of Mucus to the fish's body burden,Fish #1,0.04
same,"Contribution of Other tissue (all apart from blood, liver, gills and skin; muscle concentration assumed) to body burden",Fish #1,0.14
same,Contribution of Skin to the fish's body burden,Fish #1,0.08
same,Contribution of Blood to the fish's body burden,Fish #2,0.011
same,Contribution of Gills to the fish's body burden,Fish #2,0.57
same,Contribution of Liver to the fish's body burden,Fish #2,0.14
same,Contribution of Mucus to the fish's body burden,Fish #2,0.03
same,"Contribution of Other tissue (all apart from blood, liver, gills and skin; muscle concentration assumed) to body burden",Fish #2,0.13
same,Contribution of Skin to the fish's body burden,Fish #2,0.12
same,Contribution of Blood to the fish's body burden,Fish #3,0.012
same,Contribution of Liver to the fish's body burden,Fish #3,0.12
same,Contribution of Mucus to the fish's body burden,Fish #3,0.04
same,"Contribution of Other tissue (all apart from blood, liver, gills and skin; muscle concentration assumed) to body burden",Fish #3,0.15
same,Contribution of Skin to the fish's body burden,Fish #3,0.10
same,Contribution of Blood to the fish's body burden,Fish #4,0.010
same,Contribution of Gills to the fish's body burden,Fish #4,0.50
same,Contribution of Liver to the fish's body burden,Fish #4,0.15
same,Contribution of Mucus to the fish's body burden,Fish #4,0.04
same,"Contribution of Other tissue (all apart from blood, liver, gills and skin; muscle concentration assumed) to body burden",Fish #4,0.18
same,Contribution of Skin to the fish's body burden,Fish #4,0.12
same,Contribution of Blood to the fish's body burden,Fish #5,0.008
same,Contribution of Gills to the fish's body burden,Fish #5,0.65
same,Contribution of Liver to the fish's body burden,Fish #5,0.08
same,Contribution of Mucus to the fish's body burden,Fish #5,0.05
same,"Contribution of Other tissue (all apart from blood, liver, gills and skin; muscle concentration assumed) to body burden",Fish #5,0.11
same,Contribution of Skin to the fish's body burden,Fish #5,0.10
same,Contribution of Blood to the fish's body burden,Fish #6,0.016
same,Contribution of Gills to the fish's body burden,Fish #6,0.58
same,Contribution of Liver to the fish's body burden,Fish #6,0.11
same,Contribution of Mucus to the fish's body burden,Fish #6,0.06
same,"Contribution of Other tissue (all apart from blood, liver, gills and skin; muscle concentration assumed) to body burden",Fish #6,0.11
same,Contribution of Skin to the fish's body burden,Fish #6,0.13
same,Contribution of Blood to the fish's body burden,Mean,0.012
same,Contribution of Gills to the fish's body burden,Mean,0.58
same,Contribution of Liver to the fish's body burden,Mean,0.12
same,Contribution of Mucus to the fish's body burden,Mean,0.04
same,"Contribution of Other tissue (all apart from blood, liver, gills and skin; muscle concentration assumed) to body burden",Mean,0.13
same,Contribution of Skin to the fish's body burden,Mean,0.11
same,Share of body burden present in gills and mucus,in vivo,at least 50%
same,"% contribution to body burden, Gills",,58%
same,"% contribution to body burden, Mucus",,4%
same,"% contribution to body burden, Liver",,12%
same,"% contribution to body burden, Skin",,11%
same,"% contribution to body burden, Muscle",,13%
"CCCCCCCCCN(C)C [T9, N,N-dimethylnonylamine]",Contribution of Blood to the fish's body burden,Fish #1,0.045
same,Contribution of Gills to the fish's body burden,Fish #1,0.11
same,Contribution of Liver to the fish's body burden,Fish #1,0.08
same,Contribution of Mucus to the fish's body burden,Fish #1,0.12
same,"Contribution of Other tissue (all apart from blood, liver, gills and skin; muscle concentration assumed) to body burden",Fish #1,0.35
same,Contribution of Skin to the fish's body burden,Fish #1,0.30
same,Contribution of Blood to the fish's body burden,Fish #2,0.059
same,Contribution of Gills to the fish's body burden,Fish #2,0.14
same,Contribution of Liver to the fish's body burden,Fish #2,0.08
same,Contribution of Mucus to the fish's body burden,Fish #2,0.12
same,"Contribution of Other tissue (all apart from blood, liver, gills and skin; muscle concentration assumed) to body burden",Fish #2,0.39
same,Contribution of Skin to the fish's body burden,Fish #2,0.22
same,Contribution of Blood to the fish's body burden,Fish #3,0.075
same,Contribution of Liver to the fish's body burden,Fish #3,0.11
same,Contribution of Mucus to the fish's body burden,Fish #3,0.09
same,"Contribution of Other tissue (all apart from blood, liver, gills and skin; muscle concentration assumed) to body burden",Fish #3,0.43
same,Contribution of Skin to the fish's body burden,Fish #3,0.17
same,Contribution of Blood to the fish's body burden,Fish #4,0.046
same,Contribution of Gills to the fish's body burden,Fish #4,0.15
same,Contribution of Liver to the fish's body burden,Fish #4,0.04
same,Contribution of Mucus to the fish's body burden,Fish #4,0.14
same,"Contribution of Other tissue (all apart from blood, liver, gills and skin; muscle concentration assumed) to body burden",Fish #4,0.38
same,Contribution of Skin to the fish's body burden,Fish #4,0.24
same,Contribution of Blood to the fish's body burden,Fish #5,0.056
same,Contribution of Gills to the fish's body burden,Fish #5,0.14
same,Contribution of Liver to the fish's body burden,Fish #5,0.18
same,Contribution of Mucus to the fish's body burden,Fish #5,0.08
same,"Contribution of Other tissue (all apart from blood, liver, gills and skin; muscle concentration assumed) to body burden",Fish #5,0.35
same,Contribution of Skin to the fish's body burden,Fish #5,0.19
same,Contribution of Blood to the fish's body burden,Fish #6,0.062
same,Contribution of Gills to the fish's body burden,Fish #6,0.11
same,Contribution of Liver to the fish's body burden,Fish #6,0.26
same,Contribution of Mucus to the fish's body burden,Fish #6,0.08
same,"Contribution of Other tissue (all apart from blood, liver, gills and skin; muscle concentration assumed) to body burden",Fish #6,0.33
same,Contribution of Skin to the fish's body burden,Fish #6,0.17
same,Contribution of Blood to the fish's body burden,Mean,0.057
same,Contribution of Gills to the fish's body burden,Mean,0.13
same,Contribution of Liver to the fish's body burden,Mean,0.13
same,Contribution of Mucus to the fish's body burden,Mean,0.10
same,"Contribution of Other tissue (all apart from blood, liver, gills and skin; muscle concentration assumed) to body burden",Mean,0.37
same,Contribution of Skin to the fish's body burden,Mean,0.21
same,"Share of body burden in interior tissues (blood, liver, and muscle)",in vivo,more than half
same,"% contribution to body burden, Gills",,13%
same,"% contribution to body burden, Mucus",,10%
same,"% contribution to body burden, Liver",,13%
same,"% contribution to body burden, Skin",,21%
same,"% contribution to body burden, Muscle",,37%
"CCCCCCCCCN [P9, Nonylamine]",Contribution of Blood to the fish's body burden,Fish #1,0.016
same,Contribution of Gills to the fish's body burden,Fish #1,0.36
same,Contribution of Liver to the fish's body burden,Fish #1,0.09
same,Contribution of Mucus to the fish's body burden,Fish #1,0.38
same,"Contribution of Other tissue (all apart from blood, liver, gills and skin; muscle concentration assumed) to body burden",Fish #1,0.08
same,Contribution of Skin to the fish's body burden,Fish #1,0.07
same,Contribution of Blood to the fish's body burden,Fish #2,0.017
same,Contribution of Gills to the fish's body burden,Fish #2,0.26
same,Contribution of Liver to the fish's body burden,Fish #2,0.20
same,Contribution of Mucus to the fish's body burden,Fish #2,0.23
same,"Contribution of Other tissue (all apart from blood, liver, gills and skin; muscle concentration assumed) to body burden",Fish #2,0.14
same,Contribution of Skin to the fish's body burden,Fish #2,0.15
same,Contribution of Blood to the fish's body burden,Fish #3,0.021
same,Contribution of Liver to the fish's body burden,Fish #3,0.17
same,Contribution of Mucus to the fish's body burden,Fish #3,0.20
same,"Contribution of Other tissue (all apart from blood, liver, gills and skin; muscle concentration assumed) to body burden",Fish #3,0.14
same,Contribution of Skin to the fish's body burden,Fish #3,0.16
same,Contribution of Blood to the fish's body burden,Fish #4,0.010
same,Contribution of Gills to the fish's body burden,Fish #4,0.28
same,Contribution of Liver to the fish's body burden,Fish #4,0.19
same,Contribution of Mucus to the fish's body burden,Fish #4,0.28
same,"Contribution of Other tissue (all apart from blood, liver, gills and skin; muscle concentration assumed) to body burden",Fish #4,0.12
same,Contribution of Skin to the fish's body burden,Fish #4,0.11
same,Contribution of Blood to the fish's body burden,Fish #5,0.012
same,Contribution of Gills to the fish's body burden,Fish #5,0.35
same,Contribution of Liver to the fish's body burden,Fish #5,0.08
same,Contribution of Mucus to the fish's body burden,Fish #5,0.36
same,"Contribution of Other tissue (all apart from blood, liver, gills and skin; muscle concentration assumed) to body burden",Fish #5,0.12
same,Contribution of Skin to the fish's body burden,Fish #5,0.09
same,Contribution of Blood to the fish's body burden,Fish #6,0.018
same,Contribution of Gills to the fish's body burden,Fish #6,0.26
same,Contribution of Liver to the fish's body burden,Fish #6,0.08
same,Contribution of Mucus to the fish's body burden,Fish #6,0.35
same,"Contribution of Other tissue (all apart from blood, liver, gills and skin; muscle concentration assumed) to body burden",Fish #6,0.10
same,Contribution of Skin to the fish's body burden,Fish #6,0.19
same,Contribution of Blood to the fish's body burden,Mean,0.016
same,Contribution of Gills to the fish's body burden,Mean,0.30
same,Contribution of Liver to the fish's body burden,Mean,0.14
same,Contribution of Mucus to the fish's body burden,Mean,0.30
same,"Contribution of Other tissue (all apart from blood, liver, gills and skin; muscle concentration assumed) to body burden",Mean,0.12
same,Contribution of Skin to the fish's body burden,Mean,0.13
same,"% contribution to body burden, Gills",,30%
same,"% contribution to body burden, Mucus",,30%
same,"% contribution to body burden, Liver",,14%
same,"% contribution to body burden, Skin",,13%
same,"% contribution to body burden, Muscle",,12%
